Data reported in US10265419B2, “Intraoperative determination of nerve location” (Novadaq Technologies ULC, priority 2005, dated 2019).

How the values were obtained:
[1] = cited from earlier work
[2] = tested on: cavernous nerves; assay: NIRF imaging of cavernous nerves after intracrural ICG injection in rats; format: in vivo
Description: The area was examined for retrograde axonal transport at different time points, using a NIRF intraoperative imaging system (SPY®, Novadaq Technologies Inc., Mississauga, Ontario, Canada) that illuminates tissues with a 805 nm laser and captures images with a camera sensitive to infrared fluorescence. Near infrared microscopy and conventional histology were used to confirm the macroscopically identified fluorescent structures. […] (These were specific time points at which examinations were made. […] The fluorescent nerves were then excised.

## CC1(C)C(/C=C/C=C/C=C/C=C2\N(CCCCS(=O)(=O)O)c3ccc4ccccc4c3C2(C)C)=[N+](CCCCS(=O)(=O)[O-])c2ccc3ccccc3c21 [ICG, indocyanine green]
[1]; after intravenous injection
  metabolism in the body: not metabolized in the body
  route of excretion: excreted exclusively by the liver
[1]; in vivo
  reabsorption from the intestine / enterohepatic recirculation: not reabsorbed from the intestine and does not undergo enterohepatic recirculation
[2]; NIRF imaging
  time post-injection of highest fluorescence intensity: 18 and at 24
[2]; e.g. 30 days post-injection
  fluorescence of the cavernous nerves at longer post-injection periods: not detectable
